Data taken from ChEMBL document CHEMBL3885881, “DrugMatrix”.

Organism: Rattus norvegicus
Assay: DrugMatrix - Regimen: Daily Repeat
Format: toxicity, organism-based, Sprague-Dawley
Parameters: regimen Daily Repeat, gender Male, age 6-8 weeks
Conditions: in vivo, po, route oral GAVAGE, vehicle .5 % CMC; for ABSOLUTE BASOPHIL / ABSOLUTE EOSINOPHIL / ABSOLUTE LYMPHOCYTE / ABSOLUTE MONOCYTE / ABSOLUTE SEGMENTED NEUTROPHIL / BASOPHIL / EOSINOPHIL / ERYTHROCYTE COUNT / HEMATOCRIT / HEMOGLOBIN / LEUKOCYTE COUNT / LYMPHOCYTE / MEAN CORPUSCULAR HEMOGLOBIN / MEAN CORPUSCULAR HEMOGLOBIN CONCENTRATION / MEAN CORPUSCULAR VOLUME / MONOCYTE / NEUTROPHIL / NUCLEATED RED BLOOD CELLS / PLATELET COUNT: tissue Blood; for ALANINE AMINOTRANSFERASE / ALBUMIN / ALKALINE PHOSPHATASE / ASPARTATE AMINOTRANSFERASE / BLOOD UREA NITROGEN / CARBON DIOXIDE / CHLORIDE / CHOLESTEROL / CREATINE PHOSPHOKINASE / CREATININE / GLUCOSE / LACTATE DEHYDROGENASE / LIPASE / PHOSPHORUS / POTASSIUM / SODIUM / TOTAL BILIRUBIN / TOTAL PROTEIN / URIC ACID: tissue Plasma
[1] = 500 mg/kg, 120 h, dose level Low, time 5 day
[2] = 1500 mg/kg, 72 h, dose level High, time 3 day
[3] = 1500 mg/kg, 120 h, dose level High, time 5 day

## CC(C)(Sc1cc(C(C)(C)C)c(O)c(C(C)(C)C)c1)Sc1cc(C(C)(C)C)c(O)c(C(C)(C)C)c1 [PROBUCOL]
[1]
  ABSOLUTE BASOPHIL: 0 CELLS/uL
  ABSOLUTE EOSINOPHIL: 211 CELLS/uL
  ABSOLUTE LYMPHOCYTE: 10866.33 CELLS/uL
  ABSOLUTE MONOCYTE: 0 CELLS/uL
  ABSOLUTE SEGMENTED NEUTROPHIL: 1022.67 CELLS/uL
  BASOPHIL: 0%
  EOSINOPHIL: 1.67%
  ERYTHROCYTE COUNT: 5.74 x10E6/uL
  HEMATOCRIT: 36.53%
  HEMOGLOBIN: 13.67 G/DL
  LEUKOCYTE COUNT: 12.1 x10E3/uL
  LYMPHOCYTE: 90%
  MEAN CORPUSCULAR HEMOGLOBIN: 23.87 pg
  MEAN CORPUSCULAR HEMOGLOBIN CONCENTRATION: 37.43 G/DL
  MEAN CORPUSCULAR VOLUME: 63.7 fL
  MONOCYTE: 0%
  NEUTROPHIL: 8.33%
  NUCLEATED RED BLOOD CELLS: 0 /100WBC
  PLATELET COUNT: 1159.33 x10E3/uL
  ALANINE AMINOTRANSFERASE: 45.67 u/L
  ALBUMIN: 4.33 G/DL
  ALKALINE PHOSPHATASE: 362 u/L
  ASPARTATE AMINOTRANSFERASE: 76.33 u/L
  BLOOD UREA NITROGEN: 15.33 mg/dL
  CARBON DIOXIDE: 25.67 mmol/L
  CHLORIDE: 102 MEQ/L
  CHOLESTEROL: 70.33 mg/dL
  CREATINE PHOSPHOKINASE: 180.67 u/L
  CREATININE: 0.2 mg/dL
  GLUCOSE: 163.67 mg/dL
  LACTATE DEHYDROGENASE: 162.67 u/L
  LIPASE: 9 u/L
  PHOSPHORUS: 11.63 mg/dL
  POTASSIUM: 6.21 MEQ/L
  SODIUM: 144 MEQ/L
  TOTAL BILIRUBIN: 0.2 mg/dL
  TOTAL PROTEIN: 6.1 G/DL
  URIC ACID: 1.83 mg/dL
[2]
  ABSOLUTE BASOPHIL: 0 CELLS/uL
  ABSOLUTE EOSINOPHIL: 183 CELLS/uL
  ABSOLUTE LYMPHOCYTE: 12835.33 CELLS/uL
  ABSOLUTE MONOCYTE: 38 CELLS/uL
  ABSOLUTE SEGMENTED NEUTROPHIL: 1443.67 CELLS/uL
  BASOPHIL: 0%
  EOSINOPHIL: 1.33%
  ERYTHROCYTE COUNT: 5.49 x10E6/uL
  HEMATOCRIT: 34.77%
  HEMOGLOBIN: 13.37 G/DL
  LEUKOCYTE COUNT: 14.5 x10E3/uL
  LYMPHOCYTE: 88.33%
  MEAN CORPUSCULAR HEMOGLOBIN: 24.37 pg
  MEAN CORPUSCULAR HEMOGLOBIN CONCENTRATION: 38.47 G/DL
  MEAN CORPUSCULAR VOLUME: 63.33 fL
  MONOCYTE: 0.33%
  NEUTROPHIL: 10%
  NUCLEATED RED BLOOD CELLS: 0 /100WBC
  PLATELET COUNT: 1374.67 x10E3/uL
  ALANINE AMINOTRANSFERASE: 49.33 u/L
  ALBUMIN: 4.2 G/DL
  ALKALINE PHOSPHATASE: 412 u/L
  ASPARTATE AMINOTRANSFERASE: 77.33 u/L
  BLOOD UREA NITROGEN: 14.67 mg/dL
  CARBON DIOXIDE: 27.33 mmol/L
  CHLORIDE: 100 MEQ/L
  CHOLESTEROL: 65.67 mg/dL
  CREATINE PHOSPHOKINASE: 249.33 u/L
  CREATININE: 0.19 mg/dL
  GLUCOSE: 153.67 mg/dL
  LACTATE DEHYDROGENASE: 144 u/L
  LIPASE: 9 u/L
  PHOSPHORUS: 12.87 mg/dL
  POTASSIUM: 7.14 MEQ/L
  SODIUM: 143.67 MEQ/L
  TOTAL BILIRUBIN: 0.17 mg/dL
  TOTAL PROTEIN: 5.83 G/DL
  URIC ACID: 1.67 mg/dL
[3]
  ABSOLUTE BASOPHIL: 0 CELLS/uL
  ABSOLUTE EOSINOPHIL: 76.67 CELLS/uL
  ABSOLUTE LYMPHOCYTE: 11157.33 CELLS/uL
  ABSOLUTE MONOCYTE: 39 CELLS/uL
  ABSOLUTE SEGMENTED NEUTROPHIL: 1027 CELLS/uL
  BASOPHIL: 0%
  EOSINOPHIL: 0.67%
  ERYTHROCYTE COUNT: 5.53 x10E6/uL
  HEMATOCRIT: 34.87%
  HEMOGLOBIN: 13.07 G/DL
  LEUKOCYTE COUNT: 12.3 x10E3/uL
  LYMPHOCYTE: 90.67%
  MEAN CORPUSCULAR HEMOGLOBIN: 23.63 pg
  MEAN CORPUSCULAR HEMOGLOBIN CONCENTRATION: 37.5 G/DL
  MEAN CORPUSCULAR VOLUME: 63.03 fL
  MONOCYTE: 0.33%
  NEUTROPHIL: 8.33%
  NUCLEATED RED BLOOD CELLS: 0 /100WBC
  PLATELET COUNT: 1307 x10E3/uL
  ALANINE AMINOTRANSFERASE: 47.67 u/L
  ALBUMIN: 4.33 G/DL
  ALKALINE PHOSPHATASE: 423.67 u/L
  ASPARTATE AMINOTRANSFERASE: 74 u/L
  BLOOD UREA NITROGEN: 15.33 mg/dL
  CARBON DIOXIDE: 26.33 mmol/L
  CHLORIDE: 102.33 MEQ/L
  CHOLESTEROL: 63 mg/dL
  CREATINE PHOSPHOKINASE: 227.67 u/L
  CREATININE: 0.2 mg/dL
  GLUCOSE: 158.67 mg/dL
  LACTATE DEHYDROGENASE: 174.33 u/L
  LIPASE: 8.33 u/L
  PHOSPHORUS: 12.1 mg/dL
  POTASSIUM: 6.79 MEQ/L
  SODIUM: 145.27 MEQ/L
  TOTAL BILIRUBIN: 0.2 mg/dL
  TOTAL PROTEIN: 6.13 G/DL
  URIC ACID: 1.63 mg/dL
